PMC7596504, “Molecular mechanism of the MORC4 ATPase activation” (Nature Communications, 2020)
“And” between values parts separate entries of the source, which are not always exact repeats. Identical values can stand only once. Each block holds one compound with its values, some of them ahead of it.

Legend:
[1] = test system: 601 DNA; assay: EMSA with 601 DNA; format: binding; conditions: for binding to 601 DNA: 147 bp 601 DNA 5 pmol, pH 7.5, 150 mM NaCl, 0.5 h on ice
Procedure: EMSA experiments were performed essentially as described. In brief, increasing amounts of WT or mutant CW or ATPaseCW cassette of MORC4 were incubated with 147 bp 601 DNA (5 pmol) or 50 ng of O’RangeRuler 5 bp ladder (Thermo Scientific) in a DNA-binding buffer containing 20 mM Tris-HCl (pH 7.5), 150 mM NaCl, 2.5 mM MgCl2, and 2 mM DTT for 0.5 h on ice. The reaction mixtures were loaded on 5% native polyacrylamide gels, and electrophoresis was performed in 0.2× Tris-borate-EDTA (TBE) buffer at 100 V for 1.2 h on ice. Gels were stained with SYBR Gold (Invitrogen).

[2] = target: T1, MORC4 CW domain (Homo sapiens, UniProt Q8TE76); assay: Tryptophan fluorescence binding of histone H3 peptides to MORC4 CW; conditions: for Kd: tryptophan fluorescence, 25 °C, pH 6.8, 100 mM NaCl, excitation 295 nm, isolated CW
T1 construct: The CW domain (aa 417–475) of MORC4 was cloned into a pGEX 6p-1 vector; GST (N, cleaved yes); made in house; host or cells: E. coli Rosetta2 (DE3) pLysS or BL21 (DE3) RIL
T1 sequence (Q8TE76 417-475): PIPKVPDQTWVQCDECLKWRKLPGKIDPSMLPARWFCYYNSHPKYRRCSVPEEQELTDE
Procedure: Spectra were recorded at 25 °C on a Fluoromax-3 spectrofluorometer (HORIBA). The samples containing 0.5–1 µM wild-type or mutated ATPaseCW or CW in 20 mM Tris pH 6.8, 100 mM NaCl, 2 mM DTT buffer and progressively increasing concentrations of the histone peptides were excited at 295 nm. Emission spectra were recorded between 320 and 360 nm with a 0.5 nm step size and a 0.5 s integration time and averaged over three scans. The Kd values were determined using a nonlinear least-squares analysis and the equation:1 ΔI=ΔImaxL+P+Kd−L+P+Kd^2−4PL/2P where [L] is the concentration of the histone peptide, [P] is the concentration of the protein, ΔI is the observed change of signal intensity, and ΔImax is the difference in signal intensity of the free and bound states of the protein. The Kd values were averaged over three separate experiments with the error calculated as the standard deviation between the runs.

[3] = test system: NCP252; assay: FRET, Gal4 titration into Cy3-Cy5 labeled NCP252; format: binding; conditions: for S1/2: mean of n = 3
Procedure: Histone octamers unlabeled or labeled with Cy5 at H2AK119 were prepared as previously described. NCPs were reconstituted by combining octamer with 1.25× excess DNA and performing slow salt dialysis. Free DNA was then separated from fully reconstituted NCPs by sucrose gradient purification. NCPs for fluorescence polarization assays were reconstituted from unlabeled octamer and 207 bp DNA containing the 601 Widom sequence flanked with a 30 bp linker on either side and internally labeled with Fluorescein 27 bp in from the 5′ end. Cy3-Cy5 labeled NCPs for FRET assays were reconstituted with Cy5 labeled octamer plus either 147 bp 601 Widom DNA containing a LexA transcription factor binding site at bases 8–27[34], or 252 bp DNA containing the 601 Widom sequence with a 75 bp linker at the 3′ end, a 30 bp linker at the 5’ end, and a Gal4 transcription factor binding site at bases 8–26 in the 601 Widom sequence. The 147 bp LexA-binding DNA was labeled with Cy3 on the 5′ end, and the 252 bp Gal4-binding DNA was internally labeled with Cy3 34 bp in from the 5′ end.
LexA was expressed in E. coli, separated from genomic DNA and the proteome by polyethyleneimine precipitation, and salted out with ammonium sulfate. LexA was resuspended in buffer A (20 mM potassium phosphate pH 7, 0.1 mM EDTA, 10% glycerol, 1 mM DTT) + 200 mM NaCl and purified by a linear gradient to A + 800 mM NaCl over either a cellulose phosphate or HiTrap Heparin HP column. Final LexA purification was performed on a hydroxyapatite column and dialyzed into 10 mM PIPES pH 7.0, 0.1 mM EDTA, 10% glycerol, and 200 mM NaCl for storage at −80 °C. The His-tagged DNA-binding domain (aa 1–147) of Gal4 was expressed in E. coli and purified from lysate by a linear gradient of buffer B (25 mM Tris pH 7.5, 200 mM NaCl, 0.2% Tween 20, 20 µM zinc acetate, 1 mM dithiothreitol, and 1 mM PMSF) + 10 mM imidazole to B + 200 mM imidazole over a Nickel-NTA column. Gal4 (1–147) was then further purified by a linear gradient of buffer C (25 mM Tris pH 7.5, 20 µM zinc acetate, 1 mM dithiothreitol, and 1 mM PMSF) + 200 mM NaCl to C + 800 mM NaCl over a Tosoh cation exchange column. Purified Gal4 (1–147) was then dialyzed into 10 mM HEPES pH 7.5, 200 mM NaCl, 10% glycerol, 20 µM zinc acetate, 1 mM DTT, and 1 mM PMSF for storage at −80 °C.
Cy3-Cy5 NCP FRET efficiency measurements were carried out on a Horiba Scientific Fluoromax 4. Samples were excited at 510 and 610 nm and the photoluminescence spectra were collected from 530 to 750 nm and 630 to 750 nm for donor and acceptor excitations, respectively. Each wavelength was integrated for one second, and the excitation and emission slit width were set to 5 nm with 2 nm emission wavelength steps. FRET measurements were computed through the (ratio)A method. LexA titrations were carried out in 20 mM Tris pH 7.5, 75 mM NaCl, 10% glycerol, 0.00625% Tween 20 buffer with 5 nM 147 bp Cy3-Cy5 NCPs mixed in 20 µL reaction volumes and allowed to incubate for 5 mins at 4 °C before FRET of the sample was measured. To measure changes in accessibility of the NCP147 due to MORC4 ATPaseCW binding, LexA titrations were repeated in the presence of NCP binding saturating concentrations of MORC4 ATPaseCW. Gal4 (1–147) titrations were carried out in 10 mM Tris pH 8, 130 mM NaCl, 10% glycerol, 0.0075% Tween 20 buffer with 1 nM 252 bp Cy3-Cy5 nucleosomes mixed in 60 µL reaction volumes and allowed to incubate for 10 mins at room temperature before FRET of the sample was measured. […]

Compound: C[C@H](N)C(=O)N[C@@H](CCCNC(=N)N)C(=O)N[C@H](C(=O)N[C@@H](CCCCN)C(=O)N[C@@H](CCC(N)=O)C(=O)N[C@H](C(=O)N[C@@H](C)C(=O)N[C@@H](CCCNC(=N)N)C(=O)N[C@@H](CCCCN)C(=O)N[C@@H](CO)C(=O)N[C@H](C(=O)NCC(=O)O)[C@@H](C)O)[C@@H](C)O)[C@@H](C)O [H3]
Kd ([2]; mean ± S.D. of n = 3): 2660 nM

Compound: CWKRR: triple mutant of the MORC4 CW domain, K460A/R462A/R463A (PIPKVPDQTWVQCDECLKWRKLPGKIDPSMLPARWFCYYNSHPAYAACSVPEEQELTDE; left off: GST, end not stated, cleaved)
binding to 601 DNA [1]: did not observe the 601 DNA band shift even at the DNA to CWKRR molar ratio of 1 to 200

Compound: Gal4: DNA-binding domain (aa 1–147) of transcription factor Gal4
S1/2 ([3]; FRET efficiency reduced by 50%, without MORC4, 1 nM NCP252, pH 8, 130 mM NaCl, room temperature, 10 min): 20 ± 4 nM and 20 nM
decrease in ability to bind NCP252 ([3]; MORC4 ATPaseCW with ATP vs no MORC4): ~ 5 fold
decrease in ability to bind NCP252 ([3]; MORC4 ATPaseCW without ATP vs no MORC4): 2 fold
S1/2 ([3]; in presence of MORC4 ATPaseCW with 0.3 mM ATP): 100 ± 7 nM and 100 nM
S1/2 ([3]; in presence of MORC4 ATPaseCW, without ATP): 40 ± 5 nM and 40 nM

Now from value to compound:

effect on binding of ATPaseCW to 601 DNA ([1]; added to ATPaseCW): increases binding to 601 DNA
Compound: Nc1ncnc2c1ncn2[C@@H]1O[C@H](COP(=O)(O)OP(=O)(O)NP(=O)(O)O)[C@@H](O)[C@H]1O [AMPPNP, adenylyl-imidodiphosphate, reference compound]

Kd ([2]; mean of n = 3): 112 nM
Compound: C[C@H](N)C(=O)N[C@@H](CCCNC(=N)N)C(=O)N[C@H](C(=O)N[C@@H](CCCC[N+](C)(C)C)C(=O)N[C@@H](CCC(N)=O)C(=O)N[C@H](C(=O)N[C@@H](C)C(=O)N[C@@H](CCCNC(=N)N)C(=O)N[C@@H](CCCCN)C(=O)N[C@@H](CO)C(=O)N[C@H](C(=O)NCC(=O)O)[C@@H](C)O)[C@@H](C)O)[C@@H](C)O [H3K4me3]

binding to 601 DNA [1]: indicating the direct interaction
higher binding affinity to H3K4me3 than other readers ([2]; MORC4 CW vs other H3K4me3 readers (compared with ref [21],[22])): 7–10 fold
Compound: CW: CW domain (aa 417–475) of MORC4 (PIPKVPDQTWVQCDECLKWRKLPGKIDPSMLPARWFCYYNSHPKYRRCSVPEEQELTDE; left off: GST, end not stated, cleaved)
